{"source": "patent US12702149B2", "about": "“Resistant starch from natural sources and their preparation” (Arjuna Natural Private Limited, priority 2019, dated 2026)", "system": "carrageenan induced paw oedema", "experiment": "Anti-inflammatory study, carrageenan induced paw oedema model", "assay_type": "in vivo, Wistar rats", "settings": "oral, fibres 50 mg/Kg, Diclofenac 10 mg/Kg", "experimental": "Anti-inflammatory study of turmeric dietary fibre was conducted in Wistar rats. Rats were divided into 5 groups and orally administered with study samples. • Group 1: consisted of control animals and were fed with vehicle (1% tween 80) • Group 2: animals which were given Diclofenac standard (10 mg Diclofenac/Kg body weight) • Group 3: Animals were given turmeric dietary fibre having 80% total dietary fibre (50 mg/Kg) • Group 4: Animals were given soluble dietary fibre from Guar beans (50 mg/Kg) • Group 5: Animals were given modified starch from tapioca (50 mg/Kg) Then after 30 mins, the treated rats were challenged with carrageenan (0.1 ml, 1% carrageenan suspension in 0.9% NaCl solution) by injecting to the animals in sub plantar region of the hind paw. Carrageenan is a chemical known to induce inflammation in rats. The paw volume was determined for all the animals at different time intervals (base line, 3 hr, 6 Hr) after carrageenan injection using digital plethysmometer and the percentage inhibition of inflammation was calculated using following formula: Percentage inhibition=(1−D/C)×100 • D-Represents the difference in paw volume from baseline in test/standard group. • C-Represents the difference in paw volume from baseline in the control group. A higher value of percentage inhibition indicated less paw volume in the animals as compared to control animals and more anti-inflammatory activity.", "data": [{"molecule": "O=C(O)Cc1ccccc1Nc1c(Cl)cccc1Cl", "note": "[Diclofenac]", "values": [{"measurement": "Average percentage inhibition of inflammation", "setting": "average of 3 Hr and 6 Hr", "value": 39, "unit": "%"}, {"measurement": "Percentage inhibition of inflammation 3 Hr", "setting": "paw volume 3 hr after carrageenan", "value": 46, "unit": "%"}, {"measurement": "Percentage inhibition of inflammation 6 Hr", "setting": "paw volume 6 hr after carrageenan", "value": 32, "unit": "%"}]}]}
